Measurements published in patent US8507010B2, “Compositions comprising quinazoline derivatives” (Shanghai Allist Pharmaceuticals, Inc., priority 2008, dated 2013).

Tests used:
in vivo = details: male, SD, rat
Procedure: Intragastric administration (ig): 16 healthy SD rats (Shanghai Super-B&K Laboratory Animal Corp. Ltd., grade SPF), male, weighted 200-250 g, randomly divided into four groups, were each administered intragastrically with a drug: the compound prepared according to Example 1 (21.68 mg/kg), crystalline form A, crystalline form B, or crystalline form C (30 mg/kg) of p-toluenesulfonate of said compound. The blood samples were collected at 0.5 h, 1.0 h, 1.5 h, 2.0 h, 3.0 h, 5.0 h, 7.0 h, 9.0 h, 12 h, and 24 h after administration, which were then isolated to prepare the plasma. The concentrations of the drugs in the plasma were determined by means of liquid phase chromatography/tandem mass spectrometer (Agilent 1200LC/6410B), and the concentration-time curve was obtained.

[1] = system: human epidermoid squamous carcinoma cell A431; details: stated in CN 200610023526.7 / WO 2007/082434; cited from earlier work
[2] = system: human epidermoid squamous carcinoma cell A431; details: stated in CN 200610023526.7 / WO 2007/082434; cited from earlier work; remark: listed apart in the source
[3] = system: human breast cancer cell BT-474; details: stated in CN 200610023526.7 / WO 2007/082434; cited from earlier work
erbB-2 kinase = erbB-2 kinase (Homo sapiens, UniProt P04626); details: stated in CN 200610023526.7 / WO 2007/082434; cited from earlier work
erbB-2 kinase, sequence (P04626 23-1255): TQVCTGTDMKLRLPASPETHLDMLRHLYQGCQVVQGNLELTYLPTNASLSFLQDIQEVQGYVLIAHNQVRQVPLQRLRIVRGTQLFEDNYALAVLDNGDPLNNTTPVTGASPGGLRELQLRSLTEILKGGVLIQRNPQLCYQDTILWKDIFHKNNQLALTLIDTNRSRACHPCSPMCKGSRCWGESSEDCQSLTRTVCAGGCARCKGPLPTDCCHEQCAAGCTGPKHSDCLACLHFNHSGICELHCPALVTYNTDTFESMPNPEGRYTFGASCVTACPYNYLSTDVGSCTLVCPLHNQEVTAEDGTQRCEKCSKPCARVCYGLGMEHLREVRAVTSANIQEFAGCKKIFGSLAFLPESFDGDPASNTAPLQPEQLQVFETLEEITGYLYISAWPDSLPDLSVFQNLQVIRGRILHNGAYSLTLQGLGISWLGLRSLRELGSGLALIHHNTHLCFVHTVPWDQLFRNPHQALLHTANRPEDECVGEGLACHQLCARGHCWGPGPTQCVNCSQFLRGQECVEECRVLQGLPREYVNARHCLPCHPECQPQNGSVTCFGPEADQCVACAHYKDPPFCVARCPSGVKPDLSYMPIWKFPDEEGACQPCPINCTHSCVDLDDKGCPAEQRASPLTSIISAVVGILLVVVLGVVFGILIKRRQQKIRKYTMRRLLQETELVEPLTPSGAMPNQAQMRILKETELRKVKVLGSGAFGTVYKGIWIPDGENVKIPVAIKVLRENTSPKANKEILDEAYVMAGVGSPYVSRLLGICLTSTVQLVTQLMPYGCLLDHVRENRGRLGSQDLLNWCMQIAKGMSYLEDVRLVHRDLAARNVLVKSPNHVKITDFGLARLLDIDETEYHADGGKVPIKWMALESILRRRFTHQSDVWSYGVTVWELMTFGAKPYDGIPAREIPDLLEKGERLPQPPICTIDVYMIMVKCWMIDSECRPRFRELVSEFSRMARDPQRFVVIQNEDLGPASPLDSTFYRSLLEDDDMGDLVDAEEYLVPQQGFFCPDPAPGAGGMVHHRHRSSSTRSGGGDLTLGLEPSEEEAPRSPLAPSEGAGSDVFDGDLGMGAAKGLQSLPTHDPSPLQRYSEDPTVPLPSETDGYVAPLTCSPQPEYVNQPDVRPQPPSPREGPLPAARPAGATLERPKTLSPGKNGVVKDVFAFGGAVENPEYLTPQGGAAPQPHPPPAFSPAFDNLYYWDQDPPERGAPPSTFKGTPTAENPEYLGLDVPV

bioavailability (in vivo; absolute bioavailability): 0.95% | AUC(0-t) (in vivo; po, 21.68 mg/kg, AUC0-t): 106 ng·h/mL | Cmax (in vivo; po, 21.68 mg/kg, Cmax): 32 ng/mL | half-life (in vivo; po, 21.68 mg/kg, T1/2): 1.81 h | Tmax (in vivo; po, 21.68 mg/kg, Tmax): 0.75 h
SMILES: C=CC(=O)Nc1ccc2ncnc(Nc3ccc(OCc4cccc(F)c4)c(Cl)c3)c2c1 [The compound of Example 1, N-{4-[3-chloro-4-(3-fluoro-benzyloxy)phenylamino]quinazolin-6-yl}-acrylamide]
inhibitory effect on growth of A431 cells (in words) [1]: remarkable inhibitory effect | anti-tumor effect on A431 grafted to a nude mouse (in words) [2]: obvious anti-tumor effect | inhibitory effect on growth of BT-474 cells (in words) [3]: remarkable inhibitory effect | inhibitory activity against erbB-2 kinase (in words) (erbB-2 kinase): excellent inhibitory activity
